Measurements from patent publication US20100291596A1, “SCREENING METHOD FOR AGENTS SUITABLE FOR THERAPY OF ALZHEIMER'S DISEASE” (FREIE UNIVERSITAT BERLIN, priority 2007, published 2010).
Entries after “also recorded” stand apart in the source; their conditions may differ.

Legend:
[1] = target: T1, gamma-secretase (Homo sapiens, UniProt P49768); assay: Confocal laser scanning microscopy of subcellular distribution of APP-CTF-YFP in HEK293 cells expressing SPA4CT-YFP; type: cell-based; conditions: 6 h
T1 construct: HEK293 expressing SPA4CT-YFP were spread into a 96-well dish and were treated with NSAIDs or controls for 6 h; endogenous in cells; host or cells: HEK293 (ATCC CRL-1573)
Procedure: HEK293 cells were transiently transfected with SPA4CT-YFP. After 24 h, cells were treated with varying concentrations (indicated in the figures) of different NSAIDs, gamma-secretase inhibitor N-[N-(3,5-difluorophenacetyl-L-alanyl)]-S-phenylglycine t-butyl ester (DAPT) or vehicle control for 6 h. The subcellular distribution of APP-CTF-YFP within living cells was analyzed by confocal laser scanning microscopy (LSM).
(i) Cells expressing a fusion protein comprising the substrate of gamma-secretase (APP-CTF) and a fluorescent protein (fp) are incubated with the drug candidate in a 96 well plate. Prior to addition to the cells, the drug is dissolved in EtOH or DMSO. Controls are (1) untreated culture medium, (2) culture medium containing EtOH or DMSO, and (3) culture medium with known inhibitors of gamma-secretase. After incubation for 6 h to 24 hours the fluorescence is determined. If gamma-secretase is active, the fusion protein is degraded and the fluorescent protein spreads in the cell, e.g., the cell cytoplasm. As a consequence, intensive fluorescence is not detectable. If the gamma-secretase is inhibited, the substrate of gamma-secretase accumulates at the plasma membrane resulting in an intensive (and traceable) fluorescence (see, for further experimental details and results FIGS. 1 and 1.II and the figure legend). […]

[2] = target: T1, gamma-secretase; assay: Quantification of gamma-secretase inhibition: average YFP fluorescence of HEK293 cells expressing APP-CTF-YFP; type: cell-based; conditions: 6 h
Procedure: To quantify the effects of NSAIDs on gamma-secretase activity, HEK293 expressing SPA4CT-YFP were spread into a 96-well dish and were treated with NSAIDs or controls for 6 h. Intensity of YFP fluorescence was quantified with adjusted filters in a 96-well fluorescence reader (company BertholdTech, Mithras). (i) Cells expressing a fusion protein comprising the substrate of gamma-secretase (APP-CTF) and a fluorescent protein (fp) are incubated with the drug candidate in a 96 well plate. Prior to addition to the cells, the drug is dissolved in EtOH or DMSO. Controls are (1) untreated culture medium, (2) culture medium containing EtOH or DMSO, and (3) culture medium with known inhibitors of gamma-secretase. After incubation for 6 h to 24 hours the fluorescence is determined. If gamma-secretase is active, the fusion protein is degraded and the fluorescent protein spreads in the cell, e.g., the cell cytoplasm. As a consequence, intensive fluorescence is not detectable. If the gamma-secretase is inhibited, the substrate of gamma-secretase accumulates at the plasma membrane resulting in an intensive (and traceable) fluorescence (see, for further experimental details and results FIGS. 1 and 1.II and the figure legend). Drug candidates which inhibit the biological activity (i.e. cleavage of the substrate) of gamma-secretase are discarded.

[3] = tested on: SH-SY5Y cells; assay: MTS assay of viable SH-SY5Y cells for determination of cytotoxicity; type: cell-based, human; conditions: 24 h
Procedure: SH-SY5Y cells expressing SPA4CT wt were spread at a density of 30.000 cells per 96-well. The cell culture media (OptiMEM, Invitrogen or serum containing medium, Biochrom) were supplemented with NSAIDs in varying concentrations as well as positive controls (without treatment or vehicle control) and negative controls (0.01% to 0.5% Triton X-100). Each well was incubated with 100 μl of supplemented media for 24 h. Then, 20 μl of the MTS stain solution (Promega, cell viability assay) was added and after 2-4 h incubation time the absorbance at 562 nm was measured.
(§1) (ii) Initially, the cytotoxicity of the compounds in cultures of neuronal cells is determined using a cell proliferation assay or an assay based on viable cells (FIG. 2). Then, APP-CTF, APP or APPsw (APPsw: APP with the familial AD mutation “swedish” (K670N M671L); APP-CTF: APP-C-terminal fragment; CTF: after alpha- or beta-secretase cleavage) expressing cells are incubated with the drug candidate (two different concentrations, 96 well plate format). After incubation for 6 to 24 h the amount of Abeta42 secreted from the cell culture medium is determined using ELISA (see, for further experimental details and results FIG. 3 and the figure legend). Drug candidates causing a reduction of the amount of Abeta42 are assayed in a further step comprising ELISA and MALDI-MS. First, the amounts of Abeta40 and Abeta38 (as well as additional possible Abeta species) are quantified by use of ELISA. Then, the entire spectrum of secreted Abeta species is assayed using immunoprecipitation and MALDI-MS analysis (see, for further experimental details and results FIG. 4 and the figure legend). Compounds leading to reduced amounts of Abeta42 and increased amounts of shorter Abeta species are selected and assayed in a further screening step.

[4] = target: T2, transmembrane sequence Abeta29-42 wt (Homo sapiens, UniProt P05067); assay: ToxR system: dimerization of transmembrane sequence Abeta29-42 wt; type: cell-based
T2 construct: the amino acid residues 29-42 of the Abeta region ([…]); expressed in transfected cells; host or cells: E. coli FHK12
Procedure: ToxR-system E. coli FHK12 cells were transformed with accordant DNA constructs encoding for ToxR-fusionproteins containing at least a part of the APP transmembrane sequence (e.g. sequence Abeta 29-42). Cells were grown in either FHK medium or minimal medium (e.g. M9 medium) supplemented with NSAIDs and corresponding vehicle controls for 6 h. Then, aliquots of the cells were lysed and beta-galactosidase activity was measured (Langosch et al., 1996).
The second screening step is carried out in order to find compounds selectively modulating only the processing of APP via binding to the transmembrane sequence (TMS) of APP. The APP-GxxxG motif is, inter alia, a perfect target structure for selecting compounds characterized by high affinity binding (Munter et al., EMBO J. 26 (2007), 1702-12). In the bacterial assay system (ToxR system) only the transmembrane sequence of APP containing the amino acid residues 29-42 of the Abeta region (GAIIGLMVGGVVIA) is expressed as part of a fusion protein. […] The rate of transcription correlates with the degree of dimerization and can be determined by measuring the conversion of a coloured substrate. […] After incubation for 2 to 24 h the degree of dimerization is determined. Binding of compounds to the amino acid sequence Abeta 29-42 results in weakening of dimerization and this is determined by measuring the decrease of enzymatic activity. […]

[5] = tested on: Abeta species secreted from SH-SY5Y cells which stably express wild type APP; assay: ELISA quantification of Abeta species secreted from SH-SY5Y cells stably expressing wild type APP; type: cell-based, human; conditions: APP wt, 6 h
Procedure: (§2) Quantification of Abeta 42, Abeta 40 and Abeta38 with ELISA Stably transfected cells were plated at a density of 2.8×10^5 cells per 12-well. The day after splitting, 200 μl of fresh media supplemented with NSAIDs or control vehicles were added and incubated for 6 h. For Abeta40 and Abeta42-specific ELISAs, 50 μl of media were analyzed according to the manufacturer's instruction (The Genetics company (TGC), Basel, Switzerland). The same protocol was applied to determine Abeta38 levels, except that the antibody BAP-29 (provided by M. Brockhaus, Roche, Basel, Switzerland) was used.
as §1

[6] = tested on: Abeta species from APP G33A-transfected cells; assay: ELISA quantification of Abeta species secreted from APP G33A-transfected cells; type: cell-based
Procedure: as §2
The effect of the drugs on the dimerization motif GxxxG of TMS of APP is assayed. Drug candidates were added to the cell culture medium containing APP-CTF, APP or APPsw expressing neuronal cells or cells containing the APP-processing machinery as described in Example 2. In addition, cell lines were assayed expressing altered APP molecules characterized by a mutated GxxxG motif. Binding of the compounds to the APP GxxxG motif results in an altered processing only of the wild type proteins, but not the altered GxxxG motif of mutants (see, for further experimental details and results FIG. 5 and the figure legend).
Detection and characterization of the binding of the drug candidate to the GxxxG motif. Binding of the compounds to Abeta42 is verified by use of BIACORE and the KD-value is determined. Binding of the compounds to the GAIIG motif should lead to lack of binding to corresponding Abeta42-fragments or GxxxG mutant peptides. Similarly, using ELISA with synthetical peptides binding of NSAIDs can be determined via a competition assay (see, for further experimental details and results FIG. 6 and the figure legend).

C[C@H](NC(=O)Cc1cc(F)cc(F)c1)C(=O)N[C@H](C(=O)OC(C)(C)C)c1ccccc1 [DAPT, N-[N-(3,5-difluorophenacetyl-L-alanyl)]-S-phenylglycine t-butyl ester]
Localization of APP-CTF-YFP (confocal images) ([1]; 1 μM added to cell culture medium): APP-CTF preferably accumulates at the plasma membrane
Average fluorescence compared to the DMSO control ([2]; 1 μM): increased fluorescence

CC(C)OC(=O)C(C)(C)Oc1ccc(C(=O)c2ccc(Cl)cc2)cc1 [Fenofibrate]
Concentration at which compound is no longer toxic (MTS assay) [3]: 5 µM

CC(C)Cc1ccc(C(C)C(=O)O)cc1 (stereo not shown) [Ibuprofen]
Concentration at which compound is no longer toxic (MTS assay) [3]: 250 µM
Stability of dimerization of the transmembrane sequence [4]: weakens the strength of dimerization
Average fluorescence compared to the DMSO control ([2]; 50 μM): slight increase of fluorescence

CSc1ccc(/C=C2/C(C)=C(CC(=O)O)c3cc(F)ccc32)cc1 [sulindac sulfide]
Secreted amount of Abeta38 [5]: low and does not substantially reduce
Secreted amount of Abeta40 [5]: low and does not substantially reduce
Secreted amount of Abeta42 [5]: decreases in a concentration dependent manner; also recorded: reduces
Concentration at which compound is no longer toxic (MTS assay) [3]: 150 µM
Secreted amount of Abeta38 [6]: does not substantially reduce
Secreted amount of Abeta40 [6]: does not substantially reduce
Secreted amount of Abeta42 [6]: no impact
Localization of APP-CTF-YFP (confocal images) ([1]; 30 μM): APP-CTF preferably accumulates at the ER/nuclear membrane
Stability of dimerization of the transmembrane sequence [4]: weakens the stability of dimerization of the transmembrane sequence of Abeta29-42 in a concentration dependent manner
Average fluorescence compared to the DMSO control ([2]; 50 μM): slight increase of fluorescence
